According to patent publication US11944627B2, “Methods for treating hematological malignancies and Ewing's sarcoma” (KURA ONCOLOGY, INC., priority 2017, dated 2024):

What was measured:
MLL-AF9 BMC = test: Cell proliferation assay, MLL-AF9 bone marrow cells; assay type: cell-based, murine; details: Mus musculus
Protocol: The ability of a compound of the present disclosure to inhibit the growth of selected cells was tested using a cell viability assay, such as the Promega CellTiter-Glo® Luminescent Cell Viability Assay (Promega Technical Bulletin, 2015, “CellTiter-Glo® Luminescent Cell Viability Assay”: 1-15, herein incorporated by reference in its entirety) or MTT cell proliferation assay (ATCC® 30-1010K) or cell counting. Compounds of the present disclosure can be tested in both acute myeloid leukemia cell lines or Ewing's sarcoma cell lines and control cell lines without the genetic abnormality or mutation being investigated (e.g., K562, REH, U937, KG-1, and/or HL-60). Selected cells can include, but are not limited to, cells such as human leukemia cell, acute myeloid leukemia cell, Ewing's sarcoma cell (e.g., SK-NEP-1, EW5, EW8, TC-71, TC-106, CHLA258, CHLA-9, CHLA-10, SK-ES-1, Hs 822.T, A-673, A-4573, Hs 863.T, RD-ES, CHLA-25, CHLA-32, CHLA-99, COG-E-352, TC-32, SK-N-MC), VCaP, LNCaP, 22RV1, DU145, LNCaP-AR, MV4;11, KOPN-8, ML-2, MOLM-13, RS4;11, SEM, bone marrow cells (BMCs), myeloblast cell, lymphoblast cell, NUP98 gene fusion cell (e.g., NUP98-PHF23 cell), NUP98-PHF23 (NP23) myeloblast cell (e.g., 961C), NUP98-PHF23 (NP23) lymphoblast cell (e.g., 748T, 106A), cell with an NPM1 mutation (e.g., OCI-AML3), cell without an NPM1 mutation, cell with a DNMT3A mutation (e.g., OCI-AML3, OCI-AML2, SET2), cell without a DNMT3A mutation, cell with a FLT3 mutation, cell without a FLT3 mutation, cell with an IDH1 mutation, cell without an IDH1 mutation, cell with an IDH2 mutation, cell without an IDH2 mutation, cell with a mixed lineage leukemia (MLL) gene amplification (e.g., UoC-M1, 2L1), cell without a mixed lineage leukemia (MLL) gene amplification, MLL-AF9, MLL-AF4, MLL-ENL, HM-2, E2A-HLF, REH, U937, HL-60, NB4, K562, KG-1, and OCI-AML2 cells. Cells were plated at relevant concentrations, for example about 1×10^5-2×10^5 cells per well in a 96-well plate. A compound of the present disclosure was added at a concentration up to about 2 μM with seven or eight, 2-fold serial dilutions for each compound. Cells were incubated at 37° C. for a period of time, for example, 72 hours, then cells in the control wells were counted. Media was changed to restore viable cell numbers to the original concentration, and compounds were re-supplied. Proliferation was measured about 72 hours later or about 96 hours later using Promega CellTiter-Glo® reagents or MTT reagents, as per kit instructions.

LXFE 2734 cells = test: Serial bleed FACS analysis and survival study in LXFE 2734 mouse model; details: LXFE 2734 model
Excerpt: Human leukemia cells were detected by FACS biweekly starting from week 2 post-cell inoculation.

AM7577 cells = test: Serial bleed FACS analysis and survival study in AM7577 mouse model (Example 30)
menin-MLL interaction = molecular target: T1, menin-MLL interaction (Homo sapiens, UniProt O00255); test: Fluorescence polarization (FP) competition assay; assay type: binding; details: read-out: Menin MLL 4-43 IC50
T1 sequence (O00255 1-610): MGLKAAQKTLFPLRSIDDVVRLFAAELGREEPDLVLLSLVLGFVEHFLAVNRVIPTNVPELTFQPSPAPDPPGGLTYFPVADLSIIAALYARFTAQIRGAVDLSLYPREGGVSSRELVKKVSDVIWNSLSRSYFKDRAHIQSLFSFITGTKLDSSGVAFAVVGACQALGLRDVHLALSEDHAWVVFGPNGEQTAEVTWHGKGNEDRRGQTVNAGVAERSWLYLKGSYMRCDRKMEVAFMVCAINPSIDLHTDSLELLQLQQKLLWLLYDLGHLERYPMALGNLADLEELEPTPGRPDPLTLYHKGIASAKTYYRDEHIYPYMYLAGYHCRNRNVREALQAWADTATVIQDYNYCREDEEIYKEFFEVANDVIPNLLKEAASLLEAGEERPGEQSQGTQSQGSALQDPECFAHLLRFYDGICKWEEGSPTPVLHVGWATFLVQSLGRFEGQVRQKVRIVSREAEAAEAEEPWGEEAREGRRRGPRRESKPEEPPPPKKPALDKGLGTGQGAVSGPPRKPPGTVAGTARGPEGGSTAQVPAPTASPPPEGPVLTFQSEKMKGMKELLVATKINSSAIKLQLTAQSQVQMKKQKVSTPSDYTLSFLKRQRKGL

| SMILES | GI50 (MLL-AF9 BMC) [nM] | also measured |
| --- | --- | --- |
| CNS(=O)(=O)C1CCN([C@@H](C)Cn2c(C#N)cc3c(C)c(CN4CCC(Nc5nc(OC)nc6sc(CC(F)(F)F)cc56)CC4)ccc32)CC1 [Compound I-214] | < 10 |  |
| CNc1nc(NC2CCN(Cc3ccc4c(cc(C#N)n4C[C@H](C)N4CCN(S(C)(=O)=O)CC4)c3C)CC2)c2cc(CC(F)(F)F)sc2n1 [Compound I-151] | < 10 |  |
| CNS(=O)(=O)N1CCN([C@@H](C)Cn2c(C#N)cc3c(C)c(CN4CCC(Nc5nc(C)nc6sc(CC(F)(F)F)cc56)CC4)ccc32)CC1 [Compound I-139] | 10 to 50 |  |
| Cc1c(CN2CCC(Nc3nc(N)nc4sc(CC(F)(F)F)cc34)CC2)ccc2c1cc(C#N)n2C[C@H](C)N1CCN(S(C)(=O)=O)CC1 [Compound I-135] | < 10 |  |
| CC(C)(C)c1cc(NC(=O)Nc2ccc(-c3cn4c(n3)sc3cc(OCCN5CCOCC5)ccc34)cc2)no1 [quizartinib] |  | overall survival (LXFE 2734 cells; compared to vehicle, FIG. 11): prolonged survival; surviving animals (LXFE 2734 cells; quizartinib ~3 mg/kg qd): no quizartinib treated animals surviving after 77 days; leukemic progression (CD45+/CD33+ blasts, FACS) (LXFE 2734 cells; Compound A ~150 mg/kg p.o. qd, quizartinib ~3 mg/kg qd, FIG. 10): evidence of leukemia relapse; leukemic progression (CD45+/CD38+ blasts, serial bleed FACS) (AM7577 cells; Compound A ~100 or ~150 mg/kg, quizartinib ~3 mg/kg, combination ~100 + ~2 mg/kg, p.o. qd, FIG. 8): evidence of leukemia breakout after 63 days; overall survival (AM7577 cells; compared to vehicle, FIG. 9A): prolonged survival; surviving animals (AM7577 cells; quizartinib only treatment): no surviving animals after 84 days |
| CNc1nc(NC2CCN(Cc3ccc4c(cc(C#N)n4C[C@H](C)N4CCS(=O)(=O)CC4)c3C)CC2)c2cc(CC(F)(F)F)sc2n1 [Compound I-203] | < 10 |  |
| C[C@@H](Cn1c(C#N)cc2cc(CN3CCC(Nc4nc(N)nc5sc(CC(F)(F)F)cc45)CC3)c(O)cc21)N1CCN(S(C)(=O)=O)CC1 [Compound I-172] | < 10 |  |
| Cc1c(CN2CCC(Nc3nc(N)nc4sc(CC(F)(F)F)cc34)CC2)ccc2c1cc(C#N)n2C[C@H](C)N1CCN(CC(=O)N(C)C)CC1 [Compound I-181] | 10 to 50 |  |
| CNC(=O)CN1CCN([C@@H](C)Cn2c(C#N)cc3c(C)c(CN4CCC(Nc5nc(N)nc6sc(CC(F)(F)F)cc56)CC4)ccc32)CC1 [Compound I-176] | 10 to 50 |  |
| CNS(=O)(=O)N1CCN([C@@H](C)Cn2c(C#N)cc3c(C)c(CN4CCC(Nc5nc(N)nc6sc(CC(F)(F)F)cc56)CC4)ccc32)CC1 [Compound I-132] | < 10 |  |
| COc1nc(NC2CCN(Cc3ccc4c(cc(C#N)n4C[C@H](C)N4CCN(S(C)(=O)=O)CC4)c3C)CC2)c2cc(CC(F)(F)F)sc2n1 [Compound I-183] | < 10 |  |
| CNS(=O)(=O)N1CCN([C@@H](C)Cn2c(C#N)cc3cc(CN4CCC(Nc5nc(N)nc6sc(CC(F)(F)F)cc56)CC4)c(O)cc32)CC1 [Compound I-177] | < 10 |  |
| Cc1c(CN2CCC(Nc3nc(N)nc4sc(CC(F)(F)F)cc34)CC2)ccc2c1cc(C#N)n2C[C@H](C)N1CCN(CC(N)=O)CC1 [Compound I-175] | 10 to 50 |  |
| CCc1nc(NC2CCN(Cc3ccc4c(cc(C#N)n4C[C@H](C)N4CCN(S(C)(=O)=O)CC4)c3C)CC2)c2cc(CC(F)(F)F)sc2n1 [Compound I-171] | 10 to 50 |  |
| CNc1nc(NC2CCN(Cc3ccc4c(cc(C#N)n4C[C@H](C)N4CCC(C)(C#N)CC4)c3C)CC2)c2cc(CC(F)(F)F)sc2n1 [Compound I-199] | < 10 |  |
| Cc1nc(NC2CCN(Cc3ccc4c(cc(C#N)n4C[C@H](C)N4CCC(S(C)(=O)=O)CC4)c3C)CC2)c2cc(CC(F)(F)F)sc2n1 [Compound I-165] | < 10 |  |
| Cc1nc(NC2CCN(Cc3ccc4c(cc(C#N)n4C[C@H](C)N4CCN(S(C)(=O)=O)CC4)c3C)CC2)c2cc(CC(F)(F)F)sc2n1 [Compound I-138] | 10 to 50 |  |
| CNS(=O)(=O)N1CCN([C@@H](C)Cn2c(C#N)cc3c(C)c(CN4CCC(Nc5nc(OC)nc6sc(CC(F)(F)F)cc56)CC4)ccc32)CC1 [Compound I-205] | < 10 |  |
| Cc1c(CN2CCC(Nc3ncnc4sc(CC(F)(F)F)cc34)CC2)ccc2c1cc(C#N)n2C[C@H](C)N1CCN(S(C)(=O)=O)[C@H](C(N)=O)C1 [Compound I-163] | < 10 |  |
| CCNc1nc(NC2CCN(Cc3ccc4c(cc(C#N)n4C[C@H](C)N4CCN(S(C)(=O)=O)CC4)c3C)CC2)c2cc(CC(F)(F)F)sc2n1 [Compound I-174] | 10 to 50 |  |
| Cc1c(CN2CCC(Nc3ncnc4sc(CC(F)(F)F)cc34)CC2)ccc2c1cc(C#N)n2CCN1CCC2(CC1)CCN(S(C)(=O)=O)C2 [Compound I-52] |  | IC50 (menin-MLL interaction): 250 to 1000 nM |
| CNC(=O)C1CN([C@@H](C)Cn2c(C#N)cc3c(C)c(CN4CCC(Nc5nc(NC)nc6sc(CC(F)(F)F)cc56)CC4)ccc32)CCO1 (stereo partly shown) [Compound I-217] | 10 to 50 |  |
| Cc1c(CN2CCC(Nc3ncnc4sc(CC(F)(F)F)cc34)CC2)ccc2c1cc(C#N)n2C[C@@H](C)N1CCN(S(C)(=O)=O)CC1 [Compound I-9] | 250 to 1000 |  |
| Cc1c(CN2CCC(Nc3ncnc4sc(CC(F)(F)F)cc34)CC2)ccc2c1cc(C#N)n2CC(C)N1CCN(S(C)(=O)=O)C(C(N)=O)C1 (stereo not shown) [Compound I-80] | 10 to 50 |  |
| CNc1nc(NC2CCN(Cc3ccc4c(cc(C#N)n4C[C@H](C)N4CCC(C)(O)CC4)c3C)CC2)c2cc(CC(F)(F)F)sc2n1 [Compound I-207] | < 10 |  |
| Cc1c(CN2CCC(Nc3ncnc4sc(CC(F)(F)F)cc34)CC2)ccc2c1cc(C#N)n2C[C@H](C)N1CCN(S(C)(=O)=O)CC1 [Compound I-10] | 10 to 50 |  |
